ChEMBL document CHEMBL1201862, “PubChem BioAssay data set” (2004)
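Values below derive from 48-hour exposures of cells grown in 96-well plates, with endpoints linearly interpolated between the two concentrations bracketing the appropriate inhibition level. Abbreviation: GI50, concentration required for 50% inhibition of growth.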 Active and inactive are the calls of the source. Cut-off read from the data, not from the text of the source: active = GI50 up to about 1.1 µM and inactive = higher.

Experiments:
Experiment in all cases: NCI anticancer screen, dose series, 48 h
SW-620 = system: SW-620
SK-MEL-2 = system: SK-MEL-2
Hs-578T = system: Hs-578T
A549 = system: A549
OVCAR-5 = system: OVCAR-5
NCI-H23 = system: NCI-H23
LOX IMVI = system: LOX IMVI
CCRF-CEM = system: CCRF-CEM
KM12 = system: KM12
SK-MEL-5 = system: SK-MEL-5
HT-29 = system: HT-29
UACC-257 = system: UACC-257
ACHN = system: ACHN
SF-295 = system: SF-295
DU-145 = system: DU-145
TK-10 = system: TK-10
MDA-N = system: MDA-N
HL-60 = system: HL-60
NCI-H226 = system: NCI-H226

Measured: GI50

O=C(NC1CCCCC1)c1nn[nH]c1Cl
inactive: SW-620 > 100 µM | SK-MEL-2 > 100 µM | Hs-578T > 100 µM | A549 > 100 µM | OVCAR-5 > 100 µM | NCI-H23 > 100 µM | LOX IMVI > 100 µM | CCRF-CEM > 100 µM | KM12 > 100 µM | SK-MEL-5 > 100 µM | HT-29 > 100 µM | UACC-257 > 100 µM | ACHN > 100 µM | SF-295 > 100 µM | DU-145 > 100 µM | TK-10 > 100 µM

c1ccc2c(c1)SCCCSCCCS2
inactive: SW-620 > 100 µM | A549 > 100 µM | OVCAR-5 > 100 µM | NCI-H23 > 100 µM | LOX IMVI > 100 µM | CCRF-CEM > 100 µM | KM12 > 100 µM | MDA-N > 100 µM | SK-MEL-5 > 100 µM | HT-29 > 10 µM | UACC-257 > 100 µM | SF-295 > 100 µM | DU-145 > 100 µM | HL-60 28.1 µM | TK-10 > 100 µM

CC(=O)/C(=C/N1CC(=O)NC1=S)C(=O)Nc1ccccc1C
inactive: SW-620 > 100 µM | SK-MEL-2 > 100 µM | A549 > 100 µM | OVCAR-5 > 100 µM | NCI-H23 > 100 µM | LOX IMVI > 100 µM | KM12 > 100 µM | MDA-N > 100 µM | SK-MEL-5 > 100 µM | NCI-H226 > 10 µM | HT-29 > 100 µM | UACC-257 > 100 µM | ACHN > 100 µM | SF-295 > 100 µM | DU-145 > 100 µM | HL-60 > 100 µM | TK-10 > 100 µM

CCOc1ccc(/C=C2\NC(=S)N(/C=C3\C(=O)Oc4ccccc4C3=O)C2=O)cc1
inactive: SW-620 37.8 µM | SK-MEL-2 17.3 µM | Hs-578T 23.4 µM | A549 > 10 µM | OVCAR-5 40.2 µM | NCI-H23 30 µM | LOX IMVI 28.9 µM | CCRF-CEM 15.1 µM | KM12 20.7 µM | SK-MEL-5 19.7 µM | NCI-H226 24.7 µM | HT-29 32.5 µM | UACC-257 26.6 µM | ACHN 25.5 µM | SF-295 20.4 µM | DU-145 22.4 µM | HL-60 13.7 µM | TK-10 20.2 µM

B.CC(=O)OC1CN2CCC1CC2 (stereo not given)
inactive: SW-620 > 100 µM | SK-MEL-2 > 100 µM | Hs-578T > 100 µM | A549 > 100 µM | OVCAR-5 > 100 µM | NCI-H23 > 100 µM | CCRF-CEM > 100 µM | KM12 > 100 µM | SK-MEL-5 > 100 µM | NCI-H226 > 100 µM | HT-29 > 100 µM | ACHN > 100 µM | SF-295 > 100 µM | DU-145 > 100 µM | HL-60 > 100 µM | TK-10 > 100 µM

CC1(C)O[C@H]2[C@@H]3N=C(c4ccccc4)O[C@@H]3C=C[C@H]2O1
inactive: SW-620 > 100 µM | SK-MEL-2 > 100 µM | A549 > 100 µM | OVCAR-5 > 100 µM | NCI-H23 > 100 µM | LOX IMVI > 100 µM | CCRF-CEM > 100 µM | KM12 > 100 µM | MDA-N > 100 µM | SK-MEL-5 > 100 µM | NCI-H226 > 100 µM | HT-29 > 100 µM | UACC-257 > 100 µM | ACHN > 100 µM | SF-295 > 100 µM | DU-145 > 100 µM | HL-60 > 100 µM | TK-10 > 100 µM

Cc1ccc(N2C(=O)C=C(C3=C(O)C(=O)N(c4ccc(C)cc4)C3=O)C2=O)cc1
inactive: SW-620 > 100 µM | A549 > 100 µM | OVCAR-5 > 100 µM | NCI-H23 > 100 µM | LOX IMVI > 100 µM | CCRF-CEM > 100 µM | MDA-N > 100 µM | SK-MEL-5 > 100 µM | NCI-H226 > 100 µM | HT-29 > 100 µM | UACC-257 > 100 µM | ACHN > 100 µM | SF-295 > 100 µM | DU-145 > 100 µM | HL-60 > 100 µM | TK-10 > 100 µM

COc1cc(OC)c2c3c(OC)cc(OC)c4c(=O)c(O)c(C[C@@H](C)O)c(c5c(C[C@@H](C)O)c(O)c(=O)c1c25)c43
inactive: SW-620 15.5 µM | SK-MEL-2 19 µM | A549 36.7 µM | OVCAR-5 30.6 µM | NCI-H23 19 µM | LOX IMVI 12.6 µM | KM12 23.2 µM | MDA-N 18.7 µM | SK-MEL-5 14.2 µM | NCI-H226 19.6 µM | HT-29 18.6 µM | UACC-257 34.3 µM | ACHN 33.4 µM | SF-295 40.2 µM | DU-145 30.8 µM | HL-60 11.3 µM | TK-10 53 µM

CCOC(=O)C1=C(C)N(NC(=O)Nc2ccccc2)C(=O)C1=P(c1ccccc1)(c1ccccc1)c1ccccc1
inactive: SW-620 31 µM | SK-MEL-2 22.4 µM | A549 48.9 µM | OVCAR-5 > 100 µM | NCI-H23 41.6 µM | LOX IMVI 41.2 µM | CCRF-CEM 26.1 µM | KM12 > 10 µM | SK-MEL-5 33.8 µM | NCI-H226 50 µM | HT-29 52.2 µM | UACC-257 45.7 µM | ACHN 36.6 µM | SF-295 48.4 µM | HL-60 21.4 µM | TK-10 56.5 µM

COC(=O)C1C(=O)CC(C)(O)C(C(=O)OC)C1c1ccc(N(C)C)cc1 (stereo not given)
inactive: SW-620 > 100 µM | SK-MEL-2 > 100 µM | A549 > 100 µM | OVCAR-5 > 100 µM | NCI-H23 > 100 µM | LOX IMVI 11.6 µM | CCRF-CEM > 100 µM | KM12 > 100 µM | MDA-N > 100 µM | SK-MEL-5 > 100 µM | NCI-H226 > 100 µM | HT-29 > 100 µM | UACC-257 > 100 µM | ACHN > 100 µM | SF-295 > 100 µM | DU-145 > 100 µM | HL-60 > 100 µM | TK-10 > 100 µM

CC(C)(O)CCC(O)C(C)(O)C1CCC2(O)C3=CC(=O)C4(O)CC(O)C(O)CC4(C)C3CCC12C.CC(C)(O)CCC(O)C(C)(O)C1CCC2(O)C3=CC(=O)C4CC(O)C(O)CC4(C)C3CCC12C (stereo not given)
inactive: SW-620 > 100 µM | SK-MEL-2 > 100 µM | Hs-578T > 100 µM | A549 > 100 µM | OVCAR-5 > 100 µM | NCI-H23 > 100 µM | LOX IMVI > 100 µM | CCRF-CEM > 100 µM | KM12 > 100 µM | SK-MEL-5 > 100 µM | NCI-H226 > 100 µM | HT-29 > 100 µM | UACC-257 > 100 µM | ACHN > 100 µM | SF-295 > 100 µM | DU-145 > 100 µM | HL-60 > 100 µM | TK-10 > 100 µM
